{"source": "patent US20250255857A1", "about": "“METHODS OF TREATING ANDROGEN RECEPTOR-INDEPENDENT PROSTATE CANCER” (FOGHORN THERAPEUTICS INC., priority 2022, published 2025)", "key": {"[1]": {"tested_on": "C42B prostate xenograft tumors", "assay": "C42B prostate xenograft tumor model, tumor growth inhibition", "type": "in vivo, mice", "procedure": "(§1) Procedure: The experimental details of the studies, including tumor model, mouse strain, cell number implanted, vehicle used, days of treatment, treatment details, and average tumor size at start of dosing are outlined in Table 1. All study mice were purchased from Beijing Anikeeper Biotech and Matrigel was utilized as a basement membrane for all xenograft models. All xenografts were engrafted subcutaneously in the right flank region. The vehicles and Compound 1 (3 mg/kg) were administered twice weekly (BIW) intraperitoneally and enzalutamide (30 mg/kg) was administered orally once daily (QD), when applicable. Tumor volumes and body weights were measured over the course of study, and doses were adjusted by body weight to achieve the proper dose in terms of mg/kg."}, "[2]": {"tested_on": "NCI-H660 prostate xenograft tumors", "assay": "NCI-H660 prostate xenograft tumor model, tumor growth inhibition", "type": "in vivo, mice", "settings": "NCI-H660 CDX model", "procedure": "as §1"}, "[3]": {"tested_on": "DU145 human prostate cancer tumor cells", "assay": "DU145 subcutaneous CDX model efficacy study (tumor growth inhibition, tolerability)", "type": "in vivo, mice", "settings": "for tumor growth inhibition (TGI): DU145, P<0.001 vs. vehicle control; for Tumor Growth % on Day 49 / Tumor Size on Day 49 / T/C / TGI: DU145 subcutaneous model, 43 days; for T/C / TGI: Day 49", "procedure": "(§2) Procedure: The experimental details of the studies, including tumor model, mouse strain, cell number implanted, vehicle used, days of treatment, treatment details, and average tumor size at start of dosing are outlined in Table 3. All study mice were obtained and the studies were conducted at Pharmaron. Each mouse was inoculated subcutaneously on the right flank with the single cell suspension of DU145 human prostate cancer tumor cells (5×10^6) in 0.1 mL with Matrigel (1:1) in MEM with 10% FBS for tumor development.\n(§3) Based on tumor volume, mice were randomly assigned to respective groups using a computer-generated randomization procedure. The study groups and the number of animals per group are shown in Table 4A (efficacy study) and Table 4B (PKPD study).\nTreatment for the efficacy cohort was initiated when the mean tumor volume reached 145 mm^3 on Day 7 post tumor cell inoculation. Animals for the efficacy study were randomized into 3 groups: 1) Vehicle Control BIW IP (administered twice per week, intraperitoneally (IP); 2) Compound 1 at 3 mg/kg BIW IP; and 3) Compound 1 at 15 mg/kg BIW IP.\n(§4) In the case of an animal reaching a tumor size exceeding 2000 mm^3, the entire group was terminated. Plasma and tumor samples were collected at 4 hours and 72 hours post last dose for all groups. For the PKPD Cohort, the tumors were cut into 2 pieces: one for Western Blotting (WB) with BRD9 analysis, and one for RNAseq analysis. For the Efficacy Cohort, the tumors were analyzed for BRD9 levels by Western Blotting (WB)."}, "[4]": {"tested_on": "PC3 prostate xenograft tumors", "assay": "PC3 prostate xenograft tumor model, tumor growth inhibition", "type": "in vivo, mice", "procedure": "as §1"}, "[5]": {"tested_on": "VCaP prostate xenograft tumors", "assay": "VCaP prostate xenograft tumor model (Example 1), tumor growth inhibition", "type": "in vivo, mice", "procedure": "as §1"}, "[6]": {"tested_on": "22Rv1 prostate xenograft tumors", "assay": "22Rv1 prostate xenograft tumor model, tumor growth inhibition", "type": "in vivo, mice", "procedure": "as §1"}, "[7]": {"molecular_target": "T1, BRD9 protein (Homo sapiens, UniProt Q9H8M2)", "T1 construct": "endogenous in cells; host or cells: DU145 human prostate cancer cells grown as subcutaneous xenograft tumors in mice", "T1 sequence (Q9H8M2 1-597)": "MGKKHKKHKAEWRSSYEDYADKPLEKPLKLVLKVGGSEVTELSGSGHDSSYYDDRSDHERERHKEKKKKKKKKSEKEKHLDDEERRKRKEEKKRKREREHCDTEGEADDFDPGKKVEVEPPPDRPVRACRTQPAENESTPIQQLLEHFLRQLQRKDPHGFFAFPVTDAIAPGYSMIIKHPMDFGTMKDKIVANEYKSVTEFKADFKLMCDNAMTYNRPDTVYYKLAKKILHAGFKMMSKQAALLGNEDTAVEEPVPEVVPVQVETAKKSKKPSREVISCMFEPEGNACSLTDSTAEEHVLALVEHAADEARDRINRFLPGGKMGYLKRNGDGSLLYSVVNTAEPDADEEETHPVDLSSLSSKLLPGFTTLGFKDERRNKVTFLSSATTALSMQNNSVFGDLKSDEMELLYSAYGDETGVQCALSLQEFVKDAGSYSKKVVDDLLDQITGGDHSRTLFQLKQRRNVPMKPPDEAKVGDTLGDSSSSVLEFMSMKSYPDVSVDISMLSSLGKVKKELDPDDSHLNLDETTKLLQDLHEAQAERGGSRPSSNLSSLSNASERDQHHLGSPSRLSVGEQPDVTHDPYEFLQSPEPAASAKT", "assay": "BRD9 levels in DU145 tumors by Western Blotting (PK/PD cohort)", "type": "in vivo", "settings": "for BRD9 protein degradation (Western Blot): 72 h post last dose, P<0.05 vs. vehicle control", "procedure": "as §2, §3\nTreatment for the PKPD cohort was initiated when the mean tumor volume reached 281 mm^3 on Day 14 post tumor cell inoculation. Animals were randomized into 5 groups: 1) Vehicle Control, 3 doses intraperitoneally (IP); 2) Compound 1 at 1 mg/kg, single dose IP; 3) Compound 1 at 15 mg/kg, single dose IP; 4) Compound 1 at 1 mg/kg, 3 doses IP; and 5) Compound 1 at 15 mg/kg, 3 doses IP.\nas §4"}, "[8]": {"tested_on": "LNCaP prostate xenograft tumors", "assay": "LNCaP prostate xenograft tumor model, tumor growth inhibition", "type": "in vivo, mice", "procedure": "as §1"}}}
{"smiles": "COc1cc(-c2cn(C)c(=O)c3cnc(N4CCC4)cc23)cc(OC)c1CN1CCC(CN2CCC3(CC2)CN(c2ccc4c(c2)C(=O)N(C2CCC(=O)NC2=O)C4)C3)CC1", "note": "(stereo not shown) [Compound 1, 3-(6-(7-((1-(4-(6-(azetidin-1-yl)-2-methyl-1-oxo-1,2-dihydro-2,7-naphthyridin-4-yl)-2,6-dimethoxybenzyl)piperidin-4-yl)methyl)-2,7-diazaspiro[3.5]nonan-2-yl)-1-oxoisoindolin-2-yl) piperidine-2,6-dione]", "values": [{"measurement": "TGI with Compound 1 3 mg/kg", "setting": "[1]; C42B CDX model, AR+, 3 mg/kg BIW IP", "result": 28.7, "unit": "%"}, {"measurement": "tumor growth inhibition, in words", "setting": "[1]; C42B xenograft, Compound 1 3 mg/kg BIW IP, enzalutamide 30 mg/kg QD oral", "result": "modest tumor growth inhibition which was less than the TGI provided by enzalutamide treatment"}, {"measurement": "TGI with Compound 1 3 mg/kg", "setting": "[2]; AR−, 3 mg/kg BIW IP", "result": 56.9, "unit": "%"}, {"measurement": "TGI", "setting": "[2]; Compound 1 3 mg/kg BIW IP", "result": 56.9, "unit": "%"}, {"measurement": "tumor growth inhibition (TGI)", "setting": "[3]; 3 mg/kg BIW IP", "result": 42.2, "unit": "%"}, {"measurement": "tumor growth inhibition (TGI)", "setting": "[3]; 15 mg/kg BIW IP", "result": 55.3, "unit": "%"}, {"measurement": "safety profile: tolerability", "setting": "[3]; DU145 study, 1 mg/kg, 3 mg/kg and 15 mg/kg IP during the treatment period", "result": "tolerated Compound 1 well"}, {"measurement": "clinical abnormalities", "setting": "[3]; DU145 study, any of the animals treated", "result": "No obvious clinical abnormalities"}, {"measurement": "Tumor Growth % on Day 49", "setting": "[3]; 3 mg/kg BIW IP", "result": "710 ± 19", "unit": "%"}, {"measurement": "Tumor Size on Day 49", "setting": "[3]; 3 mg/kg BIW IP", "result": "1029 ± 30", "unit": "mm^3"}, {"measurement": "T/C", "setting": "[3]; 3 mg/kg BIW IP", "result": 57.8, "unit": "%"}, {"measurement": "TGI", "setting": "[3]; 3 mg/kg BIW IP", "result": 42.2, "unit": "%"}, {"measurement": "Tumor Growth % on Day 49", "setting": "[3]; 15 mg/kg BIW IP", "result": "549 ± 26", "unit": "%"}, {"measurement": "Tumor Size on Day 49", "setting": "[3]; 15 mg/kg BIW IP", "result": "793 ± 31", "unit": "mm^3"}, {"measurement": "T/C", "setting": "[3]; 15 mg/kg BIW IP", "result": 44.7, "unit": "%"}, {"measurement": "TGI", "setting": "[3]; 15 mg/kg BIW IP", "result": 55.3, "unit": "%"}, {"measurement": "TGI with Compound 1 3 mg/kg", "setting": "[4]; PC3 CDX model, AR−, 3 mg/kg BIW IP", "result": 61.7, "unit": "%"}, {"measurement": "TGI", "setting": "[4]; PC-3 CDX model, Compound 1 3 mg/kg BIW IP", "result": 61.7, "unit": "%"}, {"measurement": "TGI with Compound 1 3 mg/kg", "setting": "[5]; VCaP CDX model, AR V7+, 3 mg/kg BIW IP", "result": 57.8, "unit": "%"}, {"measurement": "tumor growth inhibition, in words", "setting": "[5]; VCaP xenograft, Compound 1 3 mg/kg BIW IP, enzalutamide 30 mg/kg QD oral", "result": "tumor growth inhibition that was greater than the inhibition provided by enzalutamide treatment"}, {"measurement": "TGI with Compound 1 3 mg/kg", "setting": "[6]; 22RV1 CDX model, AR V7+, 3 mg/kg BIW IP", "result": 73.2, "unit": "%"}, {"measurement": "tumor growth inhibition, in words", "setting": "[6]; 22RV1 xenograft, Compound 1 3 mg/kg BIW IP, enzalutamide 30 mg/kg QD oral", "result": "modest tumor growth inhibition which was less than the TGI provided by enzalutamide treatment"}, {"measurement": "TGI", "setting": "[6]; 22Rv1 CDX model, Compound 1 3 mg/kg BIW IP, enzalutamide 30 mg/kg QD oral", "result": 73.2, "unit": "%"}, {"measurement": "BRD9 protein degradation (Western Blot)", "setting": "[7]; 15 mg/kg single dose IP", "result": "statistically and significantly degrade BRD9 protein"}, {"measurement": "BRD9 protein degradation (Western Blot)", "setting": "[7]; 15 mg/kg three doses IP", "result": "statistically and significantly degrade BRD9 protein"}, {"measurement": "correlation of plasma PK with in vivo BRD9 degradation", "setting": "[7]; DU145 AR-negative prostate CDX model", "result": "positively corelates"}, {"measurement": "TGI with Compound 1 3 mg/kg", "setting": "[8]; LNCaP CDX model, AR+, 3 mg/kg BIW IP", "result": 6.0, "unit": "%"}, {"measurement": "tumor growth inhibition (TGI), in words", "setting": "[8]; LNCaP xenograft, Compound 1 3 mg/kg BIW IP, enzalutamide 30 mg/kg QD oral", "result": "did not result in tumor growth inhibition"}]}
